Test results taken from PubChem BioAssay (NCI).
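At the GI50, growth is halved. TGI is the concentration that stops growth completely.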

Assays:
Experiment in all cases: NCI anticancer screen, dose series, 384-well format
OVCAR-8 ovarian = system: OVCAR-8 ovarian
MDA-MB-435 melanoma = system: MDA-MB-435 melanoma
MALME-3M melanoma = system: MALME-3M melanoma
NCI-H522 lung = system: NCI-H522 lung
MDA-MB-468 breast = system: MDA-MB-468 breast
HCC-2998 colon = system: HCC-2998 colon
UACC-257 melanoma = system: UACC-257 melanoma
MOLT-4 leukemia = system: MOLT-4 leukemia
HOP-92 NSCLC = system: HOP-92 NSCLC
SF-268 CNS = system: SF-268 CNS
HL-60(TB) leukemia = system: HL-60(TB) leukemia
SK-OV-3 ovarian = system: SK-OV-3 ovarian
SK-MEL-28 melanoma = system: SK-MEL-28 melanoma
BT-549 breast = system: BT-549 breast
K-562 leukemia = system: K-562 leukemia
NCI-H226 lung = system: NCI-H226 lung
A498 renal = system: A498 renal
MCF7 breast = system: MCF7 breast
HS 578T breast = system: HS 578T breast
U251 glioblastoma = system: U251 glioblastoma
786-0 renal = system: 786-0 renal
SR leukemia = system: SR leukemia
M14 melanoma = system: M14 melanoma
HCT-15 colon = system: HCT-15 colon
SN12C renal = system: SN12C renal
MDA-MB-231 breast = system: MDA-MB-231 breast
SF-539 CNS = system: SF-539 CNS
ACHN renal = system: ACHN renal
NCI/ADR-RES ovarian = system: NCI/ADR-RES ovarian
LOX IMVI melanoma = system: LOX IMVI melanoma
RXF 393 renal = system: RXF 393 renal
TK-10 renal = system: TK-10 renal
EKVX NSCLC = system: EKVX NSCLC
SF-295 CNS = system: SF-295 CNS
OVCAR-4 ovarian = system: OVCAR-4 ovarian
KM12 colon = system: KM12 colon
SW-620 colon = system: SW-620 colon
NCI-H322M lung = system: NCI-H322M lung
T-47D breast = system: T-47D breast
RPMI-8226 leukemia = system: RPMI-8226 leukemia
NCI-H23 lung = system: NCI-H23 lung
HOP-62 NSCLC = system: HOP-62 NSCLC
OVCAR-3 ovarian = system: OVCAR-3 ovarian
SNB-19 CNS = system: SNB-19 CNS
HT29 colon = system: HT29 colon
NCI-H460 NSCLC = system: NCI-H460 NSCLC
A549 NSCLC = system: A549 NSCLC
UACC-62 melanoma = system: UACC-62 melanoma
COLO 205 colon = system: COLO 205 colon
CCRF-CEM leukemia = system: CCRF-CEM leukemia
PC-3 prostate = system: PC-3 prostate
DU-145 prostate = system: DU-145 prostate
SK-MEL-5 melanoma = system: SK-MEL-5 melanoma
UO-31 renal = system: UO-31 renal
SNB-75 CNS = system: SNB-75 CNS
CAKI-1 renal = system: CAKI-1 renal
IGROV1 ovarian = system: IGROV1 ovarian
HCT-116 colon = system: HCT-116 colon

`C[C@H](Nc1ncnc2nc[nH]c12)c1cc2ccc(F)cc2nc1-c1ccccn1` was tested, and the GI50 (OVCAR-8 ovarian) was > 100 µM, the TGI (OVCAR-8 ovarian) was > 100 µM and the GI50 (MDA-MB-435 melanoma) was > 100 µM. For the same compound, the TGI (MDA-MB-435 melanoma) was > 100 µM, the GI50 (MALME-3M melanoma) was 23.6 µM and the TGI (MALME-3M melanoma) was > 100 µM. The GI50 (NCI-H522 lung) was 67.4 µM, the TGI (NCI-H522 lung) was > 100 µM and the GI50 (MDA-MB-468 breast) was 59.2 µM. For the same compound, the TGI (MDA-MB-468 breast) was > 100 µM, the GI50 (HCC-2998 colon) was > 100 µM and the TGI (HCC-2998 colon) was > 100 µM. The GI50 (UACC-257 melanoma) was > 100 µM, the TGI (UACC-257 melanoma) was > 100 µM and the GI50 (MOLT-4 leukemia) was 23.3 µM. For the same compound, the TGI (MOLT-4 leukemia) was > 100 µM, the GI50 (HOP-92 NSCLC) was 12.7 µM and the TGI (HOP-92 NSCLC) was > 100 µM. For the same compound, the GI50 (SF-268 CNS) was > 100 µM, the TGI (SF-268 CNS) was > 100 µM and the GI50 (HL-60(TB) leukemia) was 3.53 µM. For the same compound, the TGI (HL-60(TB) leukemia) was 24.3 µM, the GI50 (SK-OV-3 ovarian) was 64.3 µM and the TGI (SK-OV-3 ovarian) was > 100 µM. The GI50 (SK-MEL-28 melanoma) was > 100 µM, the TGI (SK-MEL-28 melanoma) was > 100 µM and the GI50 (BT-549 breast) was 21.1 µM. The TGI (BT-549 breast) was > 100 µM, the GI50 (K-562 leukemia) was > 100 µM and the TGI (K-562 leukemia) was > 100 µM. The GI50 (NCI-H226 lung) was 35.7 µM, the TGI (NCI-H226 lung) was > 100 µM and the GI50 (A498 renal) was 17.5 µM. For the same compound, the TGI (A498 renal) was > 100 µM, the GI50 (MCF7 breast) was 21 µM and the TGI (MCF7 breast) was > 100 µM. For the same compound, the GI50 (HS 578T breast) was 24.7 µM, the TGI (HS 578T breast) was > 100 µM and the GI50 (U251 glioblastoma) was > 100 µM. For the same compound, the TGI (U251 glioblastoma) was > 100 µM, the GI50 ([…]-0 renal) was 30.4 µM and the TGI (786-0 renal) was > 100 µM. The GI50 (SR leukemia) was 1.06 µM, the TGI (SR leukemia) was 8.99 µM and the GI50 (M14 melanoma) was > 100 µM. For the same compound, the TGI (M14 melanoma) was > 100 µM, the GI50 (HCT-15 colon) was > 100 µM and the TGI (HCT-15 colon) was > 100 µM. The GI50 (SN12C renal) was 12.4 µM, the TGI (SN12C renal) was > 100 µM and the GI50 (MDA-MB-231 breast) was 53 µM. For the same compound, the TGI (MDA-MB-231 breast) was > 100 µM, the GI50 (SF-539 CNS) was > 100 µM and the TGI (SF-539 CNS) was > 100 µM. For the same compound, the GI50 (ACHN renal) was 96.1 µM, the TGI (ACHN renal) was > 100 µM and the GI50 (NCI/ADR-RES ovarian) was > 100 µM. The TGI (NCI/ADR-RES ovarian) was > 100 µM, the GI50 (LOX IMVI melanoma) was > 100 µM and the TGI (LOX IMVI melanoma) was > 100 µM. For the same compound, the GI50 (RXF 393 renal) was 12.6 µM, the TGI (RXF 393 renal) was > 100 µM and the GI50 (TK-10 renal) was > 100 µM. The TGI (TK-10 renal) was > 100 µM, the GI50 (EKVX NSCLC) was 37.6 µM and the TGI (EKVX NSCLC) was > 100 µM. The GI50 (SF-295 CNS) was 29.4 µM, the TGI (SF-295 CNS) was > 100 µM and the GI50 (OVCAR-4 ovarian) was > 100 µM. For the same compound, the TGI (OVCAR-4 ovarian) was > 100 µM, the GI50 (KM12 colon) was > 100 µM and the TGI (KM12 colon) was > 100 µM. For the same compound, the GI50 (SW-620 colon) was > 100 µM, the TGI (SW-620 colon) was > 100 µM and the GI50 (NCI-H322M lung) was > 100 µM. For the same compound, the TGI (NCI-H322M lung) was > 100 µM, the GI50 (T-47D breast) was 31.2 µM and the TGI (T-47D breast) was > 100 µM. The GI50 (RPMI-8226 leukemia) was 22.4 µM, the TGI (RPMI-8226 leukemia) was > 100 µM and the GI50 (NCI-H23 lung) was > 100 µM. For the same compound, the TGI (NCI-H23 lung) was > 100 µM, the GI50 (HOP-62 NSCLC) was > 100 µM and the TGI (HOP-62 NSCLC) was > 100 µM. For the same compound, the GI50 (OVCAR-3 ovarian) was 34.7 µM, the TGI (OVCAR-3 ovarian) was > 100 µM and the GI50 (SNB-19 CNS) was > 100 µM. The TGI (SNB-19 CNS) was > 100 µM, the GI50 (HT29 colon) was > 100 µM and the TGI (HT29 colon) was > 100 µM. For the same compound, the GI50 (NCI-H460 NSCLC) was > 100 µM, the TGI (NCI-H460 NSCLC) was > 100 µM and the GI50 (A549 NSCLC) was > 100 µM. The TGI (A549 NSCLC) was > 100 µM, the GI50 (UACC-62 melanoma) was 29.2 µM and the TGI (UACC-62 melanoma) was > 100 µM. The GI50 (COLO 205 colon) was > 100 µM, the TGI (COLO 205 colon) was > 100 µM and the GI50 (CCRF-CEM leukemia) was 11 µM. The TGI (CCRF-CEM leukemia) was > 100 µM, the GI50 (PC-3 prostate) was 18.2 µM and the TGI (PC-3 prostate) was > 100 µM. The GI50 (DU-145 prostate) was > 100 µM, the TGI (DU-145 prostate) was > 100 µM and the GI50 (SK-MEL-5 melanoma) was > 100 µM. For the same compound, the TGI (SK-MEL-5 melanoma) was > 100 µM, the GI50 (UO-31 renal) was 49.9 µM and the TGI (UO-31 renal) was > 100 µM. For the same compound, the GI50 (SNB-75 CNS) was 24.3 µM, the TGI (SNB-75 CNS) was > 100 µM and the GI50 (CAKI-1 renal) was 8.35 µM. The TGI (CAKI-1 renal) was 54.1 µM, the GI50 (IGROV1 ovarian) was 21.2 µM and the TGI (IGROV1 ovarian) was 93.2 µM. For the same compound, the GI50 (HCT-116 colon) was > 100 µM and the TGI (HCT-116 colon) was > 100 µM.
